Source: patent publication US8859549B2, “Potassium channel modulators” (AbbVie, Inc., priority 2011, dated 2014)
pEC50: −log10 of the molar value.

Target: T1, KCNQ 2/3 channels (Homo sapiens, UniProt O43525+O43526)
T1 construct: expressed in transfected cells; host or cells: HEK293
Test: KCNQ 2/3 channel activation, thallium flux FLIPR assay (BTC-AM dye)
Type: cell-based
Settings: for Emax: HEK293, maximum response relative to the response of 10 μM retigabine (set at 100%), read-out: % MAX; for Emax / % MAX: HEK293 KCNQ2/KCNQ3 cells; for pEC50: HEK293 cells stably expressing human KCNQ2 and KCNQ3 subunits, thallium-induced fluorescence, 4 min compound incubation; for % MAX: maximum response relative to the response of 10 μM retigabine (set at 100%)
In short: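 HEK293 cells stably expressing human KCNQ2/KCNQ3 were loaded with BTC-AM (3 μg/mL, 2 h, RT) and preincubated with compound for 4 min in pH 7.3 gluconate buffer containing 0.1 mM ouabain. Flux was triggered by 6 mM TlNO3/10 mM K2SO4 and read for 3 min; EC50 came from summed responses over basal, with maximum relative to 10 μM retigabine (100%).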

| Emax [%] | pEC50 | % MAX [%] | Compound |
| --- | --- | --- | --- |
| 85.2 | 6.33 |  | O=C(Cc1ccc(Cl)cc1)Nn1nc(-c2ccc(Cl)nc2)c2ccccc2c1=O [Example 5, 2-(4-chlorophenyl)-N-[4-(6-chloropyridin-3-yl)-1-oxophthalazin-2(1H)-yl]acetamide] |
|  | 5.79 | 57.6 | (1R,2S,5R)-5-methyl-2-(propan-2-yl)cyclohexyl[(3-{[(4-chlorophenyl)acetyl]amino}-4-oxo-3,4-dihydrophthalazin-1-yl)methyl]carbamate [Example 180] |
|  | 6.85 | 196 | CC1CN(c2nn(NC(=O)CC3CC4CCC3C4)c(=O)c3ccccc23)CC(C)O1 (racemic) [Example 90, (±)-2-[(exo)-bicyclo[2.2.1]hept-2-yl]-N-{4-[(cis)-2,6-dimethylmorpholin-4-yl]-1-oxophthalazin-2(1H)-yl}acetamide] |
| 44.1 | 5.02 |  | Cc1ccc(S(=O)(=O)NCc2nn(NC(=O)Cc3ccc(Cl)cc3)c(=O)c3ccccc23)cc1 [Example 78, 2-(4-chlorophenyl)-N-[4-({[(4-methylphenyl)sulfonyl]amino}methyl)-1-oxophthalazin-2(1H)-yl]acetamide] |
| 117 | 5.57 |  | O=C(Cc1ccc(Cl)cc1)Nn1nc(N2CCOCC2)c2ccccc2c1=O [Example 2, 2-(4-chlorophenyl)-N-[4-(morpholin-4-yl)-1-oxophthalazin-2(1H)-yl]acetamide] |
| 89.1 | 5.00 |  | CC(C)(C)C(=O)NCc1nn(NC(=O)Cc2ccc(Cl)cc2)c(=O)c2ccccc12 [Example 87, N-[(3-{[(4-chlorophenyl)acetyl]amino}-4-oxo-3,4-dihydrophthalazin-1-yl)methyl]-2,2-dimethylpropanamide] |
| 75.2 | 6.81 |  | N#Cc1ccc(S(=O)(=O)c2nn(NC(=O)Cc3ccc(F)cc3)c(=O)c3ccccc23)cc1 [Example 224, N-{4-[(4-cyanophenyl)sulfonyl]-1-oxophthalazin-2(1H)-yl}-2-(4-fluorophenyl)acetamide] |
| 17.6 |  |  | COc1cccc(CC(=O)Nn2nc(N3CCOCC3)c3ccccc3c2=O)c1 [Example 146, 2-(3-methoxyphenyl)-N-[4-(morpholin-4-yl)-1-oxophthalazin-2(1H)-yl]acetamide] |
| 146 | 6.77 |  | O=C(CC1CC2CCC1C2)Nn1nc(-c2ccccn2)c2ccccc2c1=O (racemic) [Example 19, (±)-2-[(exo)-bicyclo[2.2.1]hept-2-yl]-N-[1-oxo-4-(pyridin-2-yl)phthalazin-2(1H)-yl]acetamide] |
| 17.1 |  |  | CC(C(=O)NC(C)(C)C)c1nn(NC(=O)Cc2ccc(Cl)cc2)c(=O)c2ccccc12 (centres unmarked) [Example 112, N-tert-butyl-2-(3-{[(4-chlorophenyl)acetyl]amino}-4-oxo-3,4-dihydrophthalazin-1-yl)propanamide] |
| 112 | 5.46 |  | O=C(Cc1ccc(Cl)cc1)Nn1nc(N2CCN(Cc3ccccc3)CC2)c2ccccc2c1=O [Example 101, N-[4-(4-benzylpiperazin-1-yl)-1-oxophthalazin-2(1H)-yl]-2-(4-chlorophenyl)acetamide] |
| 5.33 |  |  | CS(=O)(=O)c1ccc(CC(=O)Nn2nc(N3CCOCC3)c3ccccc3c2=O)cc1 [Example 130, 2-[4-(methylsulfonyl)phenyl]-N-[4-(morpholin-4-yl)-1-oxophthalazin-2(1H)-yl]acetamide] |
| 187 | 6.21 |  | O=C(Cc1cc(F)cc(F)c1)Nn1nc(N2CCSCC2)c2ccccc2c1=O [Example 92, 2-(3,5-difluorophenyl)-N-[1-oxo-4-(thiomorpholin-4-yl)phthalazin-2(1H)-yl]acetamide] |
| 90 | 7.01 |  | N#Cc1ccc(S(=O)(=O)c2nn(NC(=O)Cc3ccc(Cl)cc3)c(=O)c3ccccc23)cc1 [Example 222, 2-(4-chlorophenyl)-N-{4-[(4-cyanophenyl)sulfonyl]-1-oxophthalazin-2(1H)-yl}acetamide] |
| 30.1 |  |  | O=C(Cc1ccc(Cl)cc1)Nn1nc(C(=O)O)c2ccccc2c1=O [Example 65, 3-{[(4-chlorophenyl)acetyl]amino}-4-oxo-3,4-dihydrophthalazine-1-carboxylic acid] |
| 120 | 7.08 |  | O=C(Cc1ccc(Cl)cc1)Nn1nc(Sc2ccccc2)c2ccccc2c1=O [Example 58, 2-(4-chlorophenyl)-N-[1-oxo-4-(phenylsulfanyl)phthalazin-2(1H)-yl]acetamide] |
| 129 | 6.34 |  | O=C(CC1CC2CCC1C2)Nn1nc(-c2cccnc2)c2ccccc2c1=O (racemic) [Example 8, (±)-2-[(exo)-bicyclo[2.2.1]hept-2-yl]-N-[1-oxo-4-(pyridin-3-yl)phthalazin-2(1H)-yl]acetamide] |
| 1.59 |  |  | O=C(Cc1ccccc1[N+](=O)[O-])Nn1nc(N2CCOCC2)c2ccccc2c1=O [Example 142, N-[4-(morpholin-4-yl)-1-oxophthalazin-2(1H)-yl]-2-(2-nitrophenyl)acetamide] |

| Emax [%] | pEC50 | % MAX [%] | Compound |
| --- | --- | --- | --- |
| 137 | 6.79 |  | O=C(Cc1cc(F)cc(F)c1)Nn1nc(-c2cccs2)c2ccccc2c1=O [Example 10, 2-(3,5-difluorophenyl)-N-[1-oxo-4-(thiophen-2-yl)phthalazin-2(1H)-yl]acetamide] |
| 3 |  |  | Cc1ccc(C)c(CC(=O)Nn2nc(N3CCOCC3)c3ccccc3c2=O)c1 [Example 167, 2-(2,5-dimethylphenyl)-N-[4-(morpholin-4-yl)-1-oxophthalazin-2(1H)-yl]acetamide] |
| 14.2 |  |  | CC(C)(C)NC(=O)Cc1nn(NC(=O)Cc2ccc(Cl)cc2)c(=O)c2ccccc12 [Example 122, N-{4-[2-(tert-butylamino)-2-oxoethyl]-1-oxophthalazin-2(1H)-yl}-2-(4-chlorophenyl)acetamide] |
| 17.1 |  |  | O=C(Cc1cccc(Oc2ccccc2)c1)Nn1nc(N2CCOCC2)c2ccccc2c1=O [Example 131, N-[4-(morpholin-4-yl)-1-oxophthalazin-2(1H)-yl]-2-(3-phenoxyphenyl)acetamide] |
| 123 | 7.52 |  | O=C(Cc1ccc(Cl)cc1)Nn1nc(SCc2ccccc2)c2ccccc2c1=O [Example 213, N-[4-(benzylsulfanyl)-1-oxophthalazin-2(1H)-yl]-2-(4-chlorophenyl)acetamide] |
| 180 | 7.63 |  | O=C(CC1CC2CCC1C2)Nn1nc(Sc2ccc(Br)cc2)c2ccccc2c1=O (racemic) [Example 200, (±)-2-[(exo)-bicyclo[2.2.1]hept-2-yl]-N-{4-[(4-bromophenyl)sulfanyl]-1-oxophthalazin-2(1H)-yl}acetamide] |
| 140 | 7.07 |  | O=C(Cc1ccc(Cl)cc1)Nn1nc(N2CCCCC2)c2ccccc2c1=O [Example 24, 2-(4-chlorophenyl)-N-[1-oxo-4-(piperidin-1-yl)phthalazin-2(1H)-yl]acetamide] |
| 183 | 5.39 |  | O=C(CC1CC2CCC1C2)Nn1nc(-c2ccnc(C(=O)O)c2)c2ccccc2c1=O (racemic) [Example 75, (±)-4-(3-{[(exo)-bicyclo[2.2.1]hept-2-ylacetyl]amino}-4-oxo-3,4-dihydrophthalazin-1-yl)pyridine-2-carboxylic acid] |
| 34.2 |  |  | COc1ccc(CC(=O)Nn2nc(N3CCOCC3)c3ccccc3c2=O)c(OC)c1 [Example 170, 2-(2,4-dimethoxyphenyl)-N-[4-(morpholin-4-yl)-1-oxophthalazin-2(1H)-yl]acetamide] |
| 76 |  |  | CC(C)(C)OC(=O)Nc1ccc(Sc2nn(NC(=O)Cc3ccc(Cl)cc3)c(=O)c3ccccc23)cc1 [Example 103, tert-butyl{4-[(3-{[(4-chlorophenyl)acetyl]amino}-4-oxo-3,4-dihydrophthalazin-1-yl)sulfanyl]phenyl}carbamate] |
| 86.2 | 6.83 |  | N#Cc1ccc(S(=O)(=O)c2nn(NC(=O)Cc3cc(F)cc(F)c3)c(=O)c3ccccc23)cc1 [Example 223, N-{4-[(4-cyanophenyl)sulfonyl]-1-oxophthalazin-2(1H)-yl}-2-(3,5-difluorophenyl)acetamide] |
| 103 | 5.16 |  | Cc1cccc(CC(=O)Nn2nc(N3CCOCC3)c3ccccc3c2=O)c1 [Example 140, 2-(3-methylphenyl)-N-[4-(morpholin-4-yl)-1-oxophthalazin-2(1H)-yl]acetamide] |
| 37.3 | 6.84 |  | CC(C)(CC(=O)Nn1nc(S(=O)(=O)c2ccc(C#N)cc2)c2ccccc2c1=O)c1ccccc1 [Example 225, N-{4-[(4-cyanophenyl)sulfonyl]-1-oxophthalazin-2(1H)-yl}-3-methyl-3-phenylbutanamide] |
| 146 | 6.42 |  | N#Cc1cc(-c2nn(NC(=O)CC3CC4CCC3C4)c(=O)c3ccccc23)ccn1 (racemic) [Example 45, (±)-2-[(exo)-bicyclo[2.2.1]hept-2-yl]-N-[4-(2-cyanopyridin-4-yl)-1-oxophthalazin-2(1H)-yl]acetamide] |
| 119 | 6.06 |  | O=C(Cc1ccc(Cl)cc1)Nn1nc([S+]([O-])c2ccccc2)c2ccccc2c1=O (centres unmarked) [Example 82, 2-(4-chlorophenyl)-N-[1-oxo-4-(phenylsulfinyl)phthalazin-2(1H)-yl]acetamide] |
| 15.3 |  |  | O=C(Cc1ccc(Cl)cc1)Nn1nc(CNC(=O)OCc2ccccc2)c2ccccc2c1=O [Example 188, benzyl[(3-{[(4-chlorophenyl)acetyl]amino}-4-oxo-3,4-dihydrophthalazin-1-yl)methyl]carbamate] |
| 140 | 6.29 |  | O=C(CC1CC2CCC1C2)Nn1nc(C2=CCOCC2)c2ccccc2c1=O (racemic) [Example 6, (±)-2-[(exo)-bicyclo[2.2.1]hept-2-yl]-N-[4-(3,6-dihydro-2H-pyran-4-yl)-1-oxophthalazin-2(1H)-yl]acetamide] |
